Columns and labels:
Nucleic Acid [1] = assay: Percent of interaction with calf thymus DNA (activated type XV) at a concentration of 35 uM; format: functional; conditions: Bos taurus
Nucleic Acid [2] = assay: Percent of interaction with wheat germ tRNA (type V) at a concentration of 35 uM; format: functional; conditions: Triticum aestivum

SMILES	DNA peak exclusion (Nucleic Acid [1])	tRNA peak exclusion (Nucleic Acid [2])
NC(Cc1ccccc1)C(=O)NCC1O[C@@H](O[C@@H]2C(N)C[C@@H](N)[C@@H](O)C2O)[C@@H](N)C(O)[C@@H]1O (stereo partly drawn)	100%	100%
CCN[C@@H]1C[C@H](N)[C@@H](O[C@H]2OC(CN)=CC[C@H]2N)[C@H](O)[C@H]1O[C@H]1OC[C@](C)(O)[C@H](NC)[C@H]1O	68.8%	55.1%
NC1C[C@@H](N)C(O)[C@@H](O)[C@@H]1O (single isomer, unassigned)		30.3%
NC[C@@H]1O[C@H](O[C@H]2[C@@H](O)[C@H](O[C@@H]3[C@@H](O)[C@H](N)C[C@H](N)[C@H]3O[C@H]3O[C@H](CN)[C@@H](O)[C@H](O)[C@H]3N)O[C@@H]2CO)[C@H](N)[C@@H](O)[C@@H]1O	100%	77.8%
CN[C@@H]1[C@H](O[C@H]2[C@H](O[C@H]3[C@H](O)[C@@H](O)[C@H](N=C(N)N)[C@@H](O)[C@@H]3N=C(N)N)O[C@@H](C)[C@]2(O)C=O)O[C@@H](CO)[C@H](O)[C@H]1O	44.3%	52.5%
NC[C@H]1OC(O[C@H]2[C@H](O)C(O)[C@H](N)C[C@@H]2N)C(N)[C@@H](O)[C@@H]1O (single isomer, unassigned)	40%	47.3%
NC[C@@H]1O[C@@H](O[C@H]2[C@H](O)[C@@H](O[C@H]3O[C@H](CO)[C@@H](O)[C@H](N)[C@H]3O)[C@H](N)C[C@@H]2N)[C@@H](O)[C@H](O)[C@H]1O	67.3%	56%
